Assay results from article PMC7824081, “Inhibition of DOT1L by Half-Selenopsammaplin A Analogs Suppresses Tumor Growth and EMT-Mediated Metastasis in Triple-Negative Breast Cancer” (Pharmaceuticals, 2020).

Experiments:
[1] = system: MDA-MB-231 TNBC cells; assay: SRB cell proliferation assay, MDA-MB-231; format: cell-based, human; settings: for IC50: 72 h, SRB assay; for Therapeutic Index: ratio of IC50 values between MCF10A and MDA-MB-231 cells
Description: (§1) Human breast epithelial cell line (MCF10A) and human TNBC cell lines (MDA-MB-468, MDA-MB-231, Hs578T, and HCC38 cells) were provided by the American Type Culture Collection (Manassas, VA, USA). MCF10A cells were cultured in Dulbecco’s Modified Eagle’s Medium/Nutrient Mixture F-12 containing 5% donor horse serum, 100 ng/mL cholera toxin, 10 µg/mL human insulin, 20 ng/mL epidermal growth factor, 0.5 µg/mL hydrocortisone, and penicillin-streptomycin (sodium penicillin G: 100 units/mL; streptomycin: 100 μg/mL). The TNBC cells were cultured in medium [Dulbecco’s Modified Eagle’s Medium for MDA-MB-468, MDA-MB-231, and Hs578T cells; Roswell Park Memorial Institute 1640 medium for HCC38 cells] supplemented with penicillin-streptomycin and 10% fetal bovine serum at 37 °C in a humidified incubator with 5% carbon dioxide. MCF10A cells were cultured in DMEM/F12 containing 5% donor horse serum, 100 ng/mL cholera toxin, 10 µg/mL human insulin, 20 ng/mL epidermal growth factor, 0.5 µg/mL hydrocortisone and penicillin-streptomycin. All reagents used for cell culture, including culture medium, fetal bovine serum, trypsin-EDTA solution (1×), and penicillin-streptomycin solution (100×), were purchased from Gibco (Grand Island, NE, USA). Laemmli sample buffer (2×) and 2-mercaptoethanol were purchased from Bio-Rad Laboratories, Inc. (Hercules, CA, USA). EPZ-5676 was purchased from Cayman Chemical (Ann Arbor, MI, USA). Dimethyl sulfoxide (DMSO), bicinchoninic acid, copper (II) sulfate solution, bovine serum albumin (BSA), trichloroacetic acid, sulforhodamine B (SRB), and paclitaxel were purchased from Sigma–Aldrich (St. Louis, MO, USA).
(§2) Cell proliferation was evaluated using the SRB assay. Briefly, cells were seeded in 96-well plates and incubated for 30 min (for 0-day controls) or treated with test compounds for the times indicated. After incubation, the cells were fixed, dried, and stained with 0.4% (w/v) SRB in 1% (v/v) acetic acid solution. Unbound dye was removed by washing, and stained cells were dissolved in 10 mM Tris (pH 10.0). Cell proliferation was then determined by measuring the absorbance at 515 nm.

[2] = system: MCF10A normal breast epithelial cells; assay: SRB cell proliferation assay, MCF10A; format: cell-based, human; settings: 72 h
Description: as §1, §2

[3] = molecular target: T1, DOT1L (Homo sapiens, UniProt Q8TEK3); assay: DOT1L enzyme activity assay (cell-free); format: biochemical; settings: 500 nM, 2 h, DOT1L 500 ng/well
T1 construct: purchased BPS Bioscience 52202
T1 sequence (Q8TEK3 whole entry): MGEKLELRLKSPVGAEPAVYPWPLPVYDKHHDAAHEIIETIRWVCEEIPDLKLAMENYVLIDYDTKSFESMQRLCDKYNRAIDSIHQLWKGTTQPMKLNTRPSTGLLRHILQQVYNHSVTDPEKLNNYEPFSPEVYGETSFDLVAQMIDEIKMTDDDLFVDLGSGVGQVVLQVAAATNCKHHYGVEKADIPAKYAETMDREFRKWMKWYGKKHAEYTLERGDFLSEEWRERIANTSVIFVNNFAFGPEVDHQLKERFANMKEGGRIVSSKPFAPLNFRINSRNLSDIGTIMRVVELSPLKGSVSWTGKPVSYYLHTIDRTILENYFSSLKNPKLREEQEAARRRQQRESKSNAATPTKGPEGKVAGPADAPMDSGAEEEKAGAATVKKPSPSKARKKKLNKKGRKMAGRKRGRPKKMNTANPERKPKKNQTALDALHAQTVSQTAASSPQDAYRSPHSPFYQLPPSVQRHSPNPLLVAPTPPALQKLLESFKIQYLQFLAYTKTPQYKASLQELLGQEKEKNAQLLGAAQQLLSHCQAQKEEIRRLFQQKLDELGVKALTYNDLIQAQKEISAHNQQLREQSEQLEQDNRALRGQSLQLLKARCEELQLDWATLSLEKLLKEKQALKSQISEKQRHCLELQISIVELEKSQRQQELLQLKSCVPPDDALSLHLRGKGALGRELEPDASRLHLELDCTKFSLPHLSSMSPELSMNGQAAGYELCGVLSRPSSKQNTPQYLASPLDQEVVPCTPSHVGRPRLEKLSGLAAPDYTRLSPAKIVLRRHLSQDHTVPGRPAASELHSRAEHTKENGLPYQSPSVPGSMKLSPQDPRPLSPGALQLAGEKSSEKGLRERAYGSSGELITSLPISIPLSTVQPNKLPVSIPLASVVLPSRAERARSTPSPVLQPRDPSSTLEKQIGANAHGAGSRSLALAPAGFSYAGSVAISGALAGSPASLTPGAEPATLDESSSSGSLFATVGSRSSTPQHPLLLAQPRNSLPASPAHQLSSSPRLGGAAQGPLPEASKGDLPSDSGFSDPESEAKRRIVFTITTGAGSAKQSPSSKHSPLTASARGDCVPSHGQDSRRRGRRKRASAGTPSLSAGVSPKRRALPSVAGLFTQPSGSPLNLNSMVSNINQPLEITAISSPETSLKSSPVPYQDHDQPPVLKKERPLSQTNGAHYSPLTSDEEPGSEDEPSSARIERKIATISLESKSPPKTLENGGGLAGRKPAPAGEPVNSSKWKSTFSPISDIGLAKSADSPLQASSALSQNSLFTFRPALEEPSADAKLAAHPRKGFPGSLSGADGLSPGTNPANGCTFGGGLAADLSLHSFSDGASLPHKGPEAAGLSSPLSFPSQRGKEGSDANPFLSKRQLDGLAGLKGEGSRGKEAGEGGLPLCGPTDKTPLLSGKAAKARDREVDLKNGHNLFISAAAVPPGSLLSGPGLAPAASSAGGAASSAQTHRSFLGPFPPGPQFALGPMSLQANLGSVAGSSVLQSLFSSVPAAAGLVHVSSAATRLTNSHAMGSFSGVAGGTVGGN
Description: DOT1L enzyme activity was measured using 5 μM S-adenosyl methionine (SAM) as the methyl group donor, synthesized DOT1L substrate as the substrate, and 25 ng/μL DOT1L enzymes from BPS Bioscience (Cat. No. 52202; San Diego, CA, USA) according to the manufacturer’s instructions.

[4] = system: MDA-MB-231/Luc cells-implanted orthotopic mouse model; assay: MDA-MB-231/Luc-implanted orthotopic mouse tumor model; format: in vivo; settings: 30 mg/kg i.p., three times per week for 38 days
Description: All animal experiments were conducted following the guidelines approved by the Seoul National University Institutional Animal Care and Use Committee (IACUC; permission number: SNU-180430-4-1). Female nude mice (BALB/c-nu), 4 weeks old, were purchased from Central Laboratory Animal, Inc. (Seoul, Korea) and housed under pathogen-free conditions with a 12 h light-dark schedule. Luciferase expressing MDA-MB-231 cells were inoculated orthotopically into the fourth fat pad of mice (1 × 10^7 cells in 100 μL of 50:50 PBS/Matrigel) using a 29-gauge needle. Two weeks after implantation, mice were randomized into vehicle control and treatment groups of six animals per group and were administered with vehicle (EtOH/Cremophor/Normal saline = 5:5:90), 9l (10 or 30 mg/kg body weight), EPZ-5676 (30 mg/kg body weight), or paclitaxel (5 mg/kg body weight, Sigma-Aldrich) as a positive reference control. Compounds were administered intraperitoneally three times per week for 38 days. An additional week later, anesthetized mice were positioned in IVIS (PerkinElmer, Waltham, MA, USA) and were imaged 15 min after injection of 150 mg/kg D-luciferin (Gold Biotechnology, St. Louis, MO, USA) resuspended in DPBS (w/o calcium or magnesium). Mice were euthanized and primary tumors and lungs were excised, weighed, and frozen for further biochemical analysis. The length (L), width (W), and height (H) of the tumors were also measured using a digital slide caliper (Mitutoyo, Kawasaki, Japan) once a week, and tumor volumes (mm^3) were estimated by the formula LWH/2. Toxicity was evaluated based on body weight loss.
A portion of the frozen tumors excised from nude mice on the termination day of the experiment was homogenized using a hand-held homogenizer in complete lysis buffer (Active Motif, Carlsbad, CA, USA). Aliquots were stored at −80 °C, and the levels of protein expression in the tumor lysates were determined. The protein concentrations in the tumor lysates were measured using the Bradford assay.

[5] = Molecular stability in dichloromethane (TLC analysis); format: physicochemical; settings: room temperature, 48 h
Description: Figure S1. Thin layer chromatography analysis
Se-S bond analog (Figure 2, compound 9) was dissolved in dichloromethane at room
temperature. After 48 h, thin layer chromatography (TLC) analysis of the compound
9 was performed. (P : Compound 9, C : Co-spot, S : Diphenyl disulfide, SPA :
Compound 5b, eluent: [Hexane:EtOAc = 1:1] ).
(1 picture or pasted object on this page, not shown here)

In the case of `O=C(NCC[Se]Sc1ccccc1)/C(Cc1ccc(F)c(F)c1)=N/O` [9e, (E)-3-(3,4-Difluorophenyl)-2-(hydroxyimino)-N-(2-((phenylthio)selanyl)ethyl)propanamide], the IC50 ([1]; Homo sapiens, MDA-MB-231) is reported as 0.43 µM, the “Therapeutic Index” value [1] is reported as 54.23 and the IC50 ([2]; Homo sapiens, MCF-10A) is reported as 23.3 µM.
For `CC(C)(C)c1ccc(CC(=NO)C(=O)NCCSSc2ccccc2)cc1` [PsA-3091, reference compound], the IC50 [1] was 1.98 µM, the “Therapeutic Index” value [1] was 68.99 and the IC50 [2] was 137 µM.
In the case of `O=C(NCC[Se]Sc1ccccc1)/C(Cc1ccccc1)=N/O` [9b, (E)-2-(Hydroxyimino)-3-phenyl-N-(2-((phenylthio)selanyl)ethyl)propanamide], the “Inhibition of DOT1L enzyme activity” value [3] is reported as “significant inhibitory effects”, the IC50 ([1]; Homo sapiens, MDA-MB-231) is reported as 0.25 µM and the “Therapeutic Index” value [1] is reported as 86.08. The IC50 ([2]; Homo sapiens, MCF-10A) was 21.5 µM.
In the case of `O=C(NCC[Se]Sc1ccccc1)/C(Cc1ccc(F)cc1)=N/O` [9d, (E)-3-(4-Fluorophenyl)-2-(hydroxyimino)-N-(2-((phenylthio)selanyl)ethyl)propanamide], the IC50 ([1]; Homo sapiens, MDA-MB-231) is reported as 0.39 µM, the “Therapeutic Index” value [1] is reported as 66.77 and the IC50 ([2]; Homo sapiens, MCF-10A) is reported as 26 µM.
With `CCOc1ccc(C/C(=N\O)C(=O)NCC[Se]Sc2ccccc2)cc1` [9i, (E)-3-(4-Ethoxyphenyl)-2-(hydroxyimino)-N-(2-((phenylthio)selanyl)ethyl)propanamide] the IC50 ([1]; Homo sapiens, MDA-MB-231) was 0.17 µM, the “Therapeutic Index” value [1] was 123.65 and the IC50 ([2]; Homo sapiens, MCF-10A) was 21 µM.
In the case of `O=C(NCCSSCCNC(=O)/C(Cc1ccc(O)c(Br)c1)=N/O)/C(Cc1ccc(O)c(Br)c1)=N/O` [Psammaplin A (PsA), Psammaplin A], the “Inhibition of DOT1L enzyme activity” value [3] is reported as “negligible DOT1L inhibition”, the IC50 ([1]; Homo sapiens, MDA-MB-231) is reported as 2.82 µM and the “Therapeutic Index” value [1] is reported as 11.60. For the same compound, the IC50 ([2]; Homo sapiens, MCF-10A) was 32.7 µM.
For `CC(=O)O[C@H]1C(=O)[C@@]2(C)[C@H]([C@H](OC(=O)c3ccccc3)[C@]3(O)C[C@H](OC(=O)[C@H](O)[C@@H](NC(=O)c4ccccc4)c4ccccc4)C(C)=C1C3(C)C)[C@]1(OC(C)=O)CO[C@@H]1C[C@@H]2O` [Paclitaxel, reference compound], the IC50 ([1]; Homo sapiens, MDA-MB-231) was 0.01 µM, the “Therapeutic Index” value [1] was 19.80 and the IC50 ([2]; Homo sapiens, MCF-10A) was 0.198 µM.
For `O=C(NCC[Se]Sc1ccccc1)/C(Cc1ccc([N+](=O)[O-])cc1)=N/O` [9k, (E)-2-(Hydroxyimino)-3-(4-nitrophenyl)-N-(2-((phenylthio)selanyl)ethyl)propanamide], the IC50 ([1]; Homo sapiens, MDA-MB-231) was 0.19 µM, the “Therapeutic Index” value [1] was 95.53 and the IC50 ([2]; Homo sapiens, MCF-10A) was 18.2 µM.
For `O=C(NCC[Se]Sc1ccccc1)/C(Cc1ccc(Br)cc1)=N/O` [9h, (E)-3-(4-Bromophenyl)-2-(hydroxyimino)-N-(2-((phenylthio)selanyl)ethyl)propanamide], the IC50 ([1]; Homo sapiens, MDA-MB-231) was 0.4 µM, the “Therapeutic Index” value [1] was 72.85 and the IC50 ([2]; Homo sapiens, MCF-10A) was 29.1 µM.
For `O=C(NCC[Se]Sc1ccccc1)/C(Cc1ccc(O)c(Cl)c1)=N/O` [9m, (E)-3-(3-Chloro-4-hydroxyphenyl)-2-(hydroxyimino)-N-(2-((phenylthio)selanyl)ethyl)propanamide], the IC50 ([1]; Homo sapiens, MDA-MB-231) was 0.25 µM, the “Therapeutic Index” value [1] was 68.08 and the IC50 ([2]; Homo sapiens, MCF-10A) was 17 µM.
With `O=C(NCC[Se]Sc1ccccc1)/C(Cc1ccc(OCc2ccccc2)cc1)=N/O` [9j, (E)-3-(4-(Benzyloxy)phenyl)-2-(hydroxyimino)-N-(2-((phenylthio)selanyl)ethyl)propanamide] the IC50 ([1]; Homo sapiens, MDA-MB-231) was 0.18 µM, the “Therapeutic Index” value [1] was 108.22 and the IC50 ([2]; Homo sapiens, MCF-10A) was 19.5 µM.
With `CC(C)N(C[C@H]1O[C@@H](n2cnc3c(N)ncnc32)[C@H](O)[C@@H]1O)[C@H]1C[C@@H](CCc2nc3cc(C(C)(C)C)ccc3[nH]2)C1` [EPZ-5676, reference compound] the IC50 ([1]; Homo sapiens, MDA-MB-231) was over 50 µM, the “inhibition of proliferation of TNBC cells” value ([1]; at 50 μM) was “not able to inhibit the proliferation” and the IC50 ([2]; Homo sapiens, MCF-10A) was over 50 µM. For the same compound, the “effect on tumor growth” value [4] was “did not affect tumor growth”.
For `O=C(NCC[Se]Sc1ccccc1)/C(Cc1ccc2ccccc2c1)=N/O` [9c, (E)-2-(Hydroxyimino)-3-(naphthalen-2-yl)-N-(2-((phenylthio)selanyl)ethyl)propanamide], the IC50 ([1]; Homo sapiens, MDA-MB-231) was 0.46 µM, the “Therapeutic Index” value [1] was 61.30 and the IC50 ([2]; Homo sapiens, MCF-10A) was 28.2 µM.
For `O=C(NCC[Se]Sc1ccccc1)/C(Cc1ccc(Cl)cc1)=N/O` [9f, (E)-3-(4-Chlorophenyl)-2-(hydroxyimino)-N-(2-((phenylthio)selanyl)ethyl)propanamide], the IC50 ([1]; Homo sapiens, MDA-MB-231) was 0.47 µM, the “Therapeutic Index” value [1] was 57.60 and the IC50 ([2]; Homo sapiens, MCF-10A) was 27.1 µM.
With `O=C(NCC[Se]Sc1ccccc1)/C(Cc1ccc(O)c(Br)c1)=N/O` [9a, (E)-3-(3-Bromo-4-hydroxyphenyl)-2-(hydroxyimino)-N-(2-((phenylthio)selanyl)ethyl)propanamide] the “Inhibition of DOT1L enzyme activity” value [3] was “significant inhibitory effects”, the IC50 ([1]; Homo sapiens, MDA-MB-231) was 0.21 µM and the “Therapeutic Index” value [1] was 82.10. For the same compound, the IC50 ([2]; Homo sapiens, MCF-10A) was 17.2 µM.
For `O=C(NCC[Se]Sc1ccccc1)/C(Cc1ccccc1)=N/O` [compound 9], the molecular stability [5] was “stable”.
For `O=C(NCC[Se]Sc1ccccc1)/C(Cc1ccc(O)c(F)c1)=N/O` [9n, (E)-3-(3-Fluoro-4-hydroxyphenyl)-2-(hydroxyimino)-N-(2-((phenylthio)selanyl)ethyl)propanamide], the IC50 ([1]; Homo sapiens, MDA-MB-231) was 0.23 µM, the “Therapeutic Index” value [1] was 80.48 and the IC50 ([2]; Homo sapiens, MCF-10A) was 18.5 µM.
In the case of `O=C(NCC[Se]Sc1ccccc1)/C(Cc1ccc(Cl)c(Cl)c1)=N/O` [9g, (E)-3-(3,4-Dichlorophenyl)-2-(hydroxyimino)-N-(2-((phenylthio)selanyl)ethyl)propanamide], the IC50 ([1]; Homo sapiens, MDA-MB-231) is reported as 0.33 µM, the “Therapeutic Index” value [1] is reported as 68.67 and the IC50 ([2]; Homo sapiens, MCF-10A) is reported as 22.7 µM.
